In data set [1] the test system is heparinized human whole blood. The data set can be described thus: Activated clotting time (ACT) in heparinized human whole blood. Format: cell-based. As to conditions: 1.4 Units/mL heparin; varying concentrations; FIG. 1. The source says: This process can be used to calculate a standardized concentration curve for various known concentrations of anti-platelet compounds. The process can also be used to measure activated clotting times for use in calculating the ACT number for the processes of the invention.
A. Blood was drawn from a human volunteer into a syringe containing heparin. The heparin to whole blood ratio was 1:10 such that the final concentration of heparin in the syringe was 1.4 Units/mL.
B. The Hemochron™-8000 was set up to run ACT using the P-215 tubes from the same manufacturer (International Technidyne).
A. A 1 mL sample of the above heparinized blood was admixed and maintained (incubated) with 2.5-10 μl of antagonist compound or saline for 5 minutes at room temperature.
B. The Hemochron™ was started as 400 μl of the test sample was pipetted into the P-215 tube. The tube contents were gently mixed, placed into the Hemochron™ and turned one revolution until the light on the instrument came on.
C. Step B was repeated for the second channel of the instrument within 30 seconds to give an average activated clotting time. […]
The activated clotting time was first measured (in seconds) for control whole blood from each donor containing only 1.4 Units/mL of heparin. The clotting times were then measured as in Example 1 by varying concentrations of antiplatelet compounds B and D in addition to heparin for each donor. […]

A short description of data set [2]: Total and free plasma levels of compound B in dog (HPLC). As to conditions: throughout the three bolus infusions of Mab 9F7, FIG. 11. Format: in vivo. On the procedure:
In a second study, a dog was treated with a capsule of 10 mg of compound A, BID for 4 days (15 mg on day 3) prior to antibody testing. […] Four hours after the last oral dose of compound A, a dose of pentobarbitol and the monoclonal […] antibody (P187-9F7) was infused by a i.v. bolus injection. Each bolus contained a 5-fold molar excess over drug plasma levels (about 50 mg of Mab 9F7). A control dog was given identical amounts of antibody without compound A oral dosing. Blood samples were collected for aggregation assays at 5, 15, 30 and 60 minutes after each bolus administration of antibody, plasma levels of Mab 9F7, and total and free plasma levels of compound B.
This method involves the extraction of compound B and an internal standard (compound F, shown hereinafter) from acidified dog plasma with a C18 solid phase extraction column. Analysis is by reverse phase high performance liquid chromatography with fluorescence detection. […] Quality control pools were prepared in dog plasma and quantified using the human calibration curve. A linear weighted (1/concentration squared) least squares regression analysis was used to quantify samples. This method was validated with a minimum quantifiable level of 1.00 ng/mL. […]
Removed the samples to be analyzed from the freezer and thawed. […] The filtrate was then analyzed by the method given below. […]

The nature of data set [3]: Elimination of compounds B and D from the circulation. Format: in vivo. As to conditions: for Route of removal from the circulation: in vivo; for Change in elimination half-life with decreased creatinine clearance: renal impairment. From the text: In renally impaired patients, reversal of the functionality of these compounds would be especially useful in an emergency situation where rapid removal of active compound is desired.

The nature of data set [4]: Plasma half-life of compound B in guinea pig. The format is in vivo. On the procedure:
Therefore, follow-up studies were conducted in dogs because the half-life of compounds B in this species is more similar to the human half-life than is the half-life in the guinea pig.
The half life of compound B was determined by fitting the plasma concentrations and determining the elimination rate constant ke. The half-life is calculated as t½=0.693/ke.

A further data set has as its target GPIIb/IIIa (Homo sapiens, UniProt P05106+P08514). As to conditions: when administered; cited from earlier work.
The next data set concerns platelet aggregation. Also noted: dose or concentration left out as unconfirmed. As to conditions: anesthetized dogs; for up to 210 minutes; cited from earlier work.

Results on four compounds are retold here after US20030118584A1, “Restoration of platelet aggregation by antibody administration after GPIIB/IIIa antagonist treatment” (G.D. Searle & Co., priority 1998, published 2003).

With `C#C[C@H](CC(=O)O)NC(=O)CCC(=O)Nc1ccc(C(=N)N)cc1` [compound B, 3S-[[4-[[4-(aminoiminomethyl)phenyl]amino]-1,4-dioxobutyl]amino]-4-pentynoic acid], the “Effect of antiplatelet compound concentration on activated clotting time” value in data set [1] is “directly affect the activated clotting time”. The “Levels of total compound B (free plus antibody bound)” value in data set [2] is on record as “increased throughout the three infusions”. Besides, in data set [3], the “Route of removal from the circulation” value is reported as “almost exclusively by the kidney” and the “Change in elimination half-life with decreased creatinine clearance” value is reported as “appreciable increases”. Besides, the Half-life result in data set [4] is recorded as “short half-life”.

As to `N=C(N)c1ccc(N2CC[C@H](NC(=O)NCCC(=O)O)C2=O)cc1` [compound D, 3-[[[[1-[4-(aminoiminomethyl)phenyl]-2-oxo-pyrrolidin-3S-yl]amino]carbonyl]amino]propanoic acid], in data set [1], the “Effect of antiplatelet compound concentration on activated clotting time” value was “directly affect the activated clotting time”. Moreover, in data set [3], the “Route of removal from the circulation” value is “almost exclusively by the kidney” and the “Change in elimination half-life with decreased creatinine clearance” value is reported as “appreciable increases”.

Take “C7E3: anti-GPIIb/IIIa antibody (Centocor)”: the “Effect on activated clotting times” value with GPIIb/IIIa is “increase of activated clotting times”.

In the case of “cyclic [D-2-aminobutyryl-N2-methyl-L-arginyl-glycyl-L-aspartyl-3-aminomethyl-benzoic acid] methanesulfonic acid salt [DMP728]”, the “Inhibition of platelet aggregation, measured ex vivo” value in the data set on platelet aggregation is “nearly complete inhibition”.
